Where two headings read alike, the source gives them in different places.
Legend:
TNF-α = assay: Inhibition of LPS induced TNF-α production in mice in vivo; conditions: s.c. compound, LPS 50 μg/mouse i.p. 1 h later, blood after 1.5 h
Protocol: The activity of compounds of this invention in inhibiting the TNF-α release was determined, using a minor modification of the methods described in Zanetti, G.; Heumann, D., et. al., "Cytokine production after intravenous or peritoneal Gram-negative bacterial challenge in mice" J. Immunol., 148, 1890, (1992) and Sekut, L., Menius, J. A., et. al., "Evaluation if the significance of elevated levels of systemic and localized tumor necrosis factor in different animal models of inflammation" J. Lab. Clin. Med., 124, 813, (1994).
Female Balbic mice were anesthetized and injected subcutaneously with the test compounds dissolved in CMC vehicle or hydroxypropylmethyl cellulose based vehicle. Control animals received only the vehicle. After 1 h, LPS (50 μg/mouse, Sigma #13129, Sigma Chemical Co., St. Louis, Mo.) was injected intraperitoneally. After 1.5 h, blood was collected from the retro-rbital plexus region of the animals in a miicrotainer serum separator tube (Becton Dickinson, Cat. No. #5960, Becton Dickinson & Co., Franklin Lakes, N.J.). The sera was separated and the amount of TNF-α was determined using the EM-TNFA® kit (Endogen, Woburn, Mass.) by following the manufacturer's protocol.

Collagenase-III = assay: MMP enzymatic assay, hydrolysis of MCA-Pro-Leu-Gly-Leu-DPA-Ala-Arg-NH2, Collagenase-III; format: biochemical; conditions: 37° C., pH 7.5, 2.5% DMSO
Protocol: The propeptide and catalytic domain portion of human collagenase-3 was expressed in E. Coli as an N-terminal fusion protein with ubiquitin. After purification, the catalytic domain was released by treatment with 1 mM APMA for 1 hour at 37° C., and then purified by zinc chelate chromatography.
Rat collagenase-3 was purified in active form from the culture media of uterine smooth muscle cells as described in Roswit, W. T. et al., Arch. Biochem. Biophys., 225, 285-295 (1983).
The matrix metalloprotease inhibitory activity of compounds of this invention in vitro was determined based on the hydrolysis of MCA-Pro-Leu-Gly-Leu-DPA-Ala-Arg-NH2 (Bachem, Inc.) at 37° C. as described in Knight, C. G., et al., FEBS Lett., 296, 263-266 (1992).
The matrix metalloprotease enzyme was diluted with assay buffer (50 mM Tricine pH 7.5, 200 mM NaCl, 10 mM CaCl2, and 0.005% Brij-35) containing 10 μmole of above substrate dissolved in DMSO. Compounds of the invention dissolved in DMSO or only DMSO (control samples) were added such that the final DMSO concentration in all assays was 2.5%. The fluorescence changes were monitored with a Perkin-Elmer LS-50B flourimeter using an excitation wavelength of 328 nm and an emission wavelength of 393 nm.

[1] = system: TNF-α release from Human Monomac 6 cells; assay: Inhibition of TNF release in vitro, Monomac 6 cells, LPS/PMA; format: cell-based; conditions: 2 h; for inhibition at 2 µM: MONO-MAC-6, 2 μM, read-out: TNF-α % inhibition, Conc. 2 μM; for inhibition at 10 µM: MONO-MAC-6, 10 μM, read-out: TNF-α % inhibition, Conc. 10 μM
Protocol: The activity of compounds of this invention in inhibiting the TNF release was determined, using the a minor modification of the method described in Pradines-Figueres, A. and Raetz, C. R. H., J. Biol. Chem., 267 (32), 23261, (1992).
Human Monomac 6 cells (Ziegler-Heitbrock, H. W. L., et al., Int. J. Cancer, 41, 456, (1988)) were cultured at 37° C. in RPMI 1640 medium containing 10% fetal calf serum to a density of 1×10^5 cells/ml. 0.23 ml of these cells were placed in each well of a tissue culture plate and the cells were incubated for 15 min. The test compounds were dissolved in above mentioned medium and added and the incubation was continued for an additional 15 min. 10 μl of an lipopolysaccharide/phorbol-12-myristate-13-acetate (LPS/PMA) mixture was added such that the final concentration of lipopolysaccharide was 10 ng/ml and the final concentration of phorbol-12-myristate-13-acetate was 30 ng/ml. The cells were incubated for 2 h after which the plate was centrifuged and the medium was removed and analyzed for TNF content. The analysis was performed using a TNF Quantikine® Inmunoassay (R & D Systems, Minneapolis, Minn. 55413) by following the manufacturer's protocol.
The TNF-α inhibitory activity of test materials, i.e., the measure of the TNF-α content in the test group relative to the vehicle treated group (control group) was: […]

[2] = system: collagen matrix of bovine nasal cartilage plugs; assay: Cartilage plug degradation in vivo (cartilage plug implant assay); conditions: female Lewis rats, implanted bovine nasal cartilage plugs, hydroxyproline content vs vehicle, 8 or 9 days
[3] = system: collagen matrix of cartilage explants; assay: Degradation of cartilage plug in vitro (hydroxyproline release); format: cell-based; conditions: bovine knee cartilage explants, IL-1-α 20 ng/ml, compounds at 10 to 300 nm, 21 days, hydroxyproline content vs control
Protocol: The ability of the compounds of this invention to inhibit the degradation of the collagen matrix (as judged by release of hydroxyproline) was determined by the cartilage plug degradation assay in vitro by following a slight modification of the method described in Spirito, S., Doughty, E., et al., "Metalloproteinase inhibitors halt collagen breakdown in IL-1 induced bovine nasal cartilage cultures" Inflamm. Res., 44, Supp. 2: S131-S132, (1995).
Cartilage explants prepared from freshly sacrificed bovine knee joints were added to the culture medium (Dubelco's modified eagle medium, Gibco #21063-001, Gibco BRL Products, Gaithersburg, Md.), without phenol red, but with HEPES, and L-glutamine and fungizone 2.5 μglml, gentamicin 50 μg/ml, penicillin 100 U/ml, and streptomycin 100 μg/ml). The cultures were stimulated with IL-1-α at a final concentration of 20 ng/ml. Compounds of Formula (I), were added at concentrations between 10 and 300 nm in DMSO. The control samples contained only IL-1-α. The cultures were incubated at 37° C. in an atmosphere of air with 6% CO2 for 21 days during which time the medium was changed twice/week. The cartilage plugs were removed, hydrolyzed and the hydroxyproline content was determined. The MMP inhibitory activity of test materials is the measure of the hydroxyproline content in the test group relative to the vehicle treated group (control group).

Collagenase-I = target: T1, Collagenase-I (Homo sapiens, UniProt P03956); assay: MMP enzymatic assay, hydrolysis of MCA-Pro-Leu-Gly-Leu-DPA-Ala-Arg-NH2, Collagenase-I; format: biochemical
T1 construct: the collagenase-1 catalytic domain was released by treatment with 1 mM of aninophenylmercuric acetate; ubiquitin (cleaved yes); made in house; host or cells: E. coli
T1 sequence (P03956 100-269 limits assumed): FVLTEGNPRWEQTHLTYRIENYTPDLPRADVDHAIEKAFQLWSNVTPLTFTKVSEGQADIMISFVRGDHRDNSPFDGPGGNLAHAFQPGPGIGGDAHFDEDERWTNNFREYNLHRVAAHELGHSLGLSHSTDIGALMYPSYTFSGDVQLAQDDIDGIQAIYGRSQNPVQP

[4] = 37° C., pH 7.5, 2.5% DMSO; read-out: Collagenase-I IC50

O=CN1CCN(S(=O)(=O)N2CCC(C(=O)c3ccc(Cl)cc3)CC2)C(C(=O)NO)C1 (racemic) [compound 262, N-hydroxy-1-[4-(4-chlorobenzoyl)piperidine-1-sulfonyl]-4-formylpiperazine-2-(RS)-carboxamide]
TNF-α % inhibition (TNF-α): 50%
IC50 (Collagenase-III): 0.13 nM
inhibition at 2 µM [1]: 90%

CC(C)[C@@H](NS(=O)(=O)N1CCN(c2ccc(Cl)cn2)CC1)C(=O)NO [compound 50, N-hydroxy-2-(R)-{[4-(5-chloropyridin-2-yl)piperazine-1-sulfonyl]amino}-3-methylbutyramide]
IC50 (Collagenase-III): 1.3 nM
% protection [2]: 70%
% protection [3]: 71%
inhibition at 10 µM [1]: < 15%

CC(C)[C@@H](NS(=O)(=O)N1CCN(c2ccc(Cl)cc2)CC1)C(=O)NO [compound 51, N-hydroxy-2-(R)-{[4-(4-chlorophenyl)piperazine-1-sulfonyl]amino}-3-methylbutyramide]
IC50 (Collagenase-III): 2.6 nM
% protection [2]: 45%
% protection [3]: 35%

CC(C)[C@@H](NS(=O)(=O)N1CCC(Oc2ccc(Cl)cc2)CC1)C(=O)NO [compound 59, N-hydroxy-2-(R)-{[4-(4-chlorophenoxy)piperidine-1-sulfonyl]amino}-3-methylbutyramide]
IC50 (Collagenase-III): 0.18 nM
% protection [2]: 58%
% protection [3]: 54%

CC(C)[C@@H](NS(=O)(=O)N1CCN(c2ccc(C(F)(F)F)cn2)CC1)C(=O)NO [compound 60]
% protection [3]: 89%

CC(C)[C@@H](NS(=O)(=O)N1CCN(c2ccc(OCc3ccccc3)cc2)CC1)C(=O)NO [compound 74, N-hydroxy-2-(R)-{[4-(4-benzyloxyphenyl)piperazine-1-sulfonyl]amino}-3-methylbutyramide]
IC50 (Collagenase-III): 0.73 nM
% protection [2]: 46%

CC(C)[C@@H](NS(=O)(=O)N1CCC(Oc2ccc(Cl)cn2)CC1)C(=O)NO [compound 100, N-hydroxy-2-(R)-{[4-(5-chloropyridin-2-yloxy)piperidine-1-sulfonyl]amino}-3-methybutyramide]
% protection [2]: 40%
% protection [3]: 68%

O=C(NO)[C@H](CSc1ccccc1)NS(=O)(=O)N1CCN(c2ccc(Cl)cn2)CC1 [compound 106, N-hydroxy-2-(R)-{[4-(5-chloropyridin-2-yl)piperazine-1-sulfonyl]amino}-3-(phenylthio)propionamide]
IC50 (Collagenase-I; [4]): 223 nM
inhibition at 10 µM [1]: 41%

CC(C)[C@@H](NS(=O)(=O)N1CCC(Oc2ccc(F)cc2)CC1)C(=O)NO [compound 179, N-hydroxy-2-(R)-{[4-(4-fluorophenoxy)piperidine-1-sulfonyl]amino}-3-methylbutyramide]
IC50 (Collagenase-III): 0.073 nM
% protection [2]: 63%
inhibition at 10 µM [1]: < 15%

O=C(c1ccc(Cl)cc1)C1CCN(S(=O)(=O)N2CCCC[C@@H]2C(=O)NO)CC1 [compound 242, N-hydroxy-1-[4-(4-chlorobenzoyl)piperidine-1-sulfonyl]piperidine-2-(R)-carboxamide]
IC50 (Collagenase-III): 0.063 nM
% protection [3]: 27%
inhibition at 10 µM [1]: 85%

N#Cc1ccc2[nH]cc(C3CCN(S(=O)(=O)N4CCCC[C@@H]4C(=O)NO)CC3)c2c1 [compound 294, N-hydroxy-1-[4-(5-cyanoindol-3-yl)piperidine-1-sulfonyl]piperidine-2-(R)-carboxamide]
TNF-α % inhibition (TNF-α): 90%
IC50 (Collagenase-III): 340 nM
inhibition at 2 µM [1]: 97%

O=C(NO)[C@H]1CCCCN1S(=O)(=O)N1CCC(c2c[nH]c3c(F)c(F)c(F)c(F)c23)CC1 [compound 299, N-hydroxy-1-[4-(4,5,6,7-tetrafluoroindol-3-yl)piperdine-1-sulfonyl]piperidine-2-(R)-carboxamide]
TNF-α % inhibition (TNF-α): 52%
IC50 (Collagenase-III): 410 nM
IC50 (Collagenase-I; [4]): > 50000 nM
inhibition at 2 µM [1]: 90%

CN(C)C(=O)N1CCN(S(=O)(=O)N2CCC(c3c[nH]c4c(F)c(F)c(F)c(F)c34)CC2)[C@@H](C(=O)NO)C1 [compound 309, N-hydroxy-4-(N,N-dimethylaminocarbonyl)-1-[4-(4,5,6,7-tetrafluoroindol-3-yl)piperidine-1-sulfonyl]piperazine-2-(R)-carboxamide]
TNF-α % inhibition (TNF-α): 46%
IC50 (Collagenase-III): 500 nM
inhibition at 2 µM [1]: 94%

N#Cc1ccc2[nH]cc(C3CCN(S(=O)(=O)N4CCN(C(=O)N5CCOCC5)C[C@@H]4C(=O)NO)CC3)c2c1 [compound 321, N-hydroxy-4-(morpholin-4-ylcarbonyl)-1-[4-(5-cyanoindol-3-yl)piperdine-1-sulfonyl]piperazine-2-(R)-carboxamide]
TNF-α % inhibition (TNF-α): 50%
inhibition at 2 µM [1]: 93%

CC(C)[C@@H](NS(=O)(=O)N1CCN(c2ccc(OCc3ccncc3)cc2)CC1)C(=O)O [compound 413, 2-(R)-{[4-(pyridin-4-ylmethyloxyphenyl)piperazine-1-sulfonyl]amino}-3-methylbutyric acid]
IC50 (Collagenase-I; read-out: Collagenase-I IC50; 37° C., pH 7.5, 2.5% DMSO): 9300 nM
